From US12258368B2, “Disulfide-linked reversible terminators” (CENTRILLION TECHNOLOGY HOLDINGS CORPORATION, priority 2018, dated 2025)

Test system: DNA polymerase ("CENT1")
Assay: Enzymatic incorporation (primer extension) into a growing DNA chain, with runaway reaction
Assay type: biochemical
Conditions: for blockage of further extension after incorporation of the terminator: "runaway" reaction in the presence of all four unmodified dNTPs and a polymerase, lane 4; for further extension by the next base added after the cleavage: lane 6; for enzymatic incorporation: in the presence of DNA polymerase ("CENT1"), lane 3

Row | continued extension in a "runaway" reaction after cleavage (all four unmodified dNTPs and a DNA polymerase, FIG. 4 lanes 7 and 8) | SMILES | blockage of further extension after incorporation of the terminator | further extension by the next base added after the cleavage | enzymatic incorporation
1 |  | CC(=O)SCO[C@H]1C[C@H](n2cc(C#CCNC(=O)OC(C)(C)C)c(=O)[nH]c2=O)O[C@@H]1COP(=O)(O)OP(=O)(O)OP(=O)(O)O [compound 60, S-((((2R,3S,5R)-5-(5-(3-((tert-butoxycarbonyl)amino)prop-1-yn-1-yl)-2,4-dioxo-3,4-dihydropyrimidin-1 (2H)-yl)-2-(((hydroxy((hydroxy(phosphonooxy)phosphoryl)oxy)phosphoryl)oxy)methyl)tetrahydrofuran-3-yl)oxy)methyl) ethanethioate] | blockage of further extension after incorporation of the terminator | further extension by the next base added | can be used in enzymatic incorporation
2 | continued extension | CSSCO[C@@H]1C[C@H](n2cc(C#CCNC(=O)OCCSSCCNC(=O)c3ccc(C4=c5cc6c(cc5Oc5cc7c(cc54)C(CS(=O)(=O)O)=CC(C)(C)N7)=NC(C)(C)C=C6CS(=O)(=O)O)cc3C(=O)O)c(=O)[nH]c2=O)O[C@@H]1COP(=O)(O)OP(=O)(O)OP(=O)(O)O [compound 75, (6-(3-carboxy-4-((2-((2-(((3-(1-((2R,4R,5R)-5-(((hydroxy((hydroxy(phosphonooxy)phosphoryl)oxy)phosphoryl)oxy)methyl)-4-((methyldisulfaneyl)methoxy)tetrahydrofuran-2-yl)-2,4-dioxo-1,2,3,4-tetrahydropyrimidin-5-yl)prop-2-yn-1-yl)carbamoyl)oxy)ethyl)disulfaneyl)ethyl)carbamoyl)phenyl)-2,2,10,10-tetramethyl-8-(sulfomethyl)-10,11-dihydro-2H-pyrano[3,2-g:5,6-g′]diquinolin-1-ium-4-yl)methanesulfonate] | excellent blockage | further extension with on base added | excellent enzymatic incorporation
